17 molecules from patent EP4095134A1, “POLYCYCLIC COMPOUNDS FOR THE TREATMENT OF NEUROLOGICAL INDICATIONS” (UCL Business Ltd, priority 2021, dated 2022) can be followed below.

The term IC50 denotes the concentration needed to halve the response being measured. The low end stands for greater potency in that assay, the high end for weaker potency in that assay.

For the first assay, the target named is T1, P2Y1 receptor (Homo sapiens, UniProt P47900).
T1 construct: expressed in transfected cells
T1 sequence (P47900 whole entry): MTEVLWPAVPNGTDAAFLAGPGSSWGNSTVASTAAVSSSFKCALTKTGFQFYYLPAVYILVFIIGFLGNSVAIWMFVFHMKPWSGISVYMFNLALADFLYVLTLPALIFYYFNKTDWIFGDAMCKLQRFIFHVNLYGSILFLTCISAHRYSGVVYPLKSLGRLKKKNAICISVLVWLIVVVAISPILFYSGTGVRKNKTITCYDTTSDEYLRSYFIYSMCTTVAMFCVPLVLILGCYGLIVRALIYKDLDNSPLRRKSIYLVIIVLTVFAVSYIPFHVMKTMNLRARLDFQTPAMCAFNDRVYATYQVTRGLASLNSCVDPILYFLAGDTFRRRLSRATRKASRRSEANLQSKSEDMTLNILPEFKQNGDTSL
The assay can be described thus: P2Y1 IP1 accumulation HTRF assay, antagonism of agonist MRS2365 in stably transfected cells. The assay is classed as cell-based. Particulars: racemic; 5nM MRS2365; values rounded to nearest whole number; N >= 4. How it is done: IC50 values were determined using a cell based assay in stably transfected cells overexpressing the P2Y1 receptor. The assay system is a […] (HTRF) assay measuring accumulation of the intracellular messenger inositol monophosphate (IP1), generated intracellularly following activation of P2Y1. Activity of test compounds was generated by measuring antagonism of the increase in IP1 generated by addition of a selective P2Y1 agonist, MRS2365.
P2Y1 overexpressing cells were maintained in T175 flasks. The day before the assay, these cells were split and 20µl cell suspension transferred to each well of white 384-well assay plates at a cell density of 0.5x10^6 cells/mL. Plates were pulse centrifuged, then incubated overnight at 37°C / 5% CO2 prior to assay.
On day of assay, medium was removed from cells and replaced with stimulation buffer. Compounds were prepared in 100% DMSO for addition to cells using the Tecan D300e digital dispenser; compounds were prepared in cassette heads and added directly to wells in the required concentration range, to give a 10-point concentration response curve from 10µM with semi-log dilutions and a final DMSO concentration of 0.1%. Positive control antagonist curves with standard compounds were included on each plate. Plates were incubated with antagonists for 1 hour prior to addition of 5nM of the agonist MRS2365, dispensed using a Bravo liquid handler. Following agonist addition, plates were incubated for 60 minutes prior to assay. Both incubations were carried out at 37°C / 5% CO2.
For the assay, IP1 accumulation was quantified using the IPOne kit according to manufacturer's instructions. In short, a standard curve was prepared for IP 1 quantification, and cells lysed using kit lysis buffer. Assay reagents were added to the lysates, and incubated for 1 hour at room temperature without spinning or shaking. Plates were analysed on a BMG Pherastar plate reader, and IP1 signal generated in cells interpolated from the standard curve.
For all reported results, N is greater than or equal to 4. An individual N refers to one assay run with a single weighing of compound. A minimum of two assay runs were performed for each of two independent weighings of compound. Results (racemic)
For orientation: Time-resolved FRET reads energy transfer from a long-lived donor to a nearby acceptor.
In the case of `O=C(Nc1ccc(S(F)(F)(F)(F)F)cc1)Nc1cccnc1Oc1ccccc1C1(C(F)(F)F)CCO1` (racemic) [S28, 1-(4-(pentafluoro-λ^6-sulfaneyl)phenyl)-3-(2-(2-(2-(trifluoromethyl)oxetan-2-yl)phenoxy)pyridin-3-yl)urea], the half-maximal inhibitory concentration (IC50) turned out to be 0.157 µM.

For the molecule `Cc1ccc(NC(=O)Nc2ccc(Cl)cc2F)c(Oc2ccc(F)cc2C2(C(F)(F)F)CCO2)n1` (racemic) [S16, 1-(4-chloro-2-fluorophenyl)-3-(2-(4-fluoro-2-(2-(trifluoromethyl)oxetan-2-yl)phenoxy)-6-methylpyridin-3-yl)urea], the IC50 turned out to be 0.108 µM.

For the molecule `Cn1c(C(F)F)nc2ccc(NC(=O)Nc3cccnc3Oc3ccccc3C3(C(F)(F)F)CCO3)cc21` (racemic) [S85, 1-(2-(difluoromethyl)-1-methyl-1H-benzo[d]imidazol-6-yl)-3-(2-(2-(2-(trifluoromethyl)oxetan-2-yl)phenoxy)pyridin-3-yl)urea], the IC50 was determined as 5.58 µM.

`Cc1ccc(NC(=O)Nc2ccc(Cl)cc2)c(Oc2ccc(F)cc2C2(C(F)(F)F)CCO2)n1` (racemic) [S32, 1-(4-chlorophenyl)-3-(2-(4-fluoro-2-(2-(trifluoromethyl)oxetan-2-yl)phenoxy)-6-methylpyridin-3-yl)urea] displayed an IC50 of 0.169 µM.

Regarding `Cc1ccc(NC(=O)Nc2ccc(C(C)C)cc2)c(Oc2ccccc2C2(C(F)(F)F)CCO2)n1` (racemic) [S1], the IC50 stood at 0.02 µM.

`O=C(Nc1ccc(OC(F)(F)F)cc1)Nc1ccc(Cl)nc1Oc1ccccc1C1(C(F)(F)F)CCO1` (racemic) [S20, 1-(6-chloro-2-(2-(2-(trifluoromethyl)oxetan-2-yl)phenoxy)pyridin-3-yl)-3-(4-(trifluoromethoxy)phenyl)urea] registered an IC50 of 0.125 µM.

The molecule `O=C(Nc1ccc(OC(F)(F)F)cc1F)Nc1cccnc1Oc1ccccc1C1(C(F)(F)F)CCO1` (racemic) [S9, 1-(2-fluoro-4-(trifluoromethoxy)phenyl)-3-(2-(2-(2-(trifluoromethyl)oxetan-2-yl)phenoxy)pyridin-3-yl)urea] displayed a half-maximal inhibitory concentration (IC50) of 0.066 µM.

As for `COc1cc(NC(=O)Nc2ccc(C)nc2Oc2ccccc2C2(C(F)(F)F)CCO2)ccc1F` (racemic) [S67, 1-(4-fluoro-3-methoxyphenyl)-3-(6-methyl-2-(2-(2-(trifluoromethyl)oxetan-2-yl)phenoxy)pyridin-3-yl)urea], the concentration for half-maximal inhibition (IC50) is 1.06 µM.

The molecule `Cc1c(Oc2ncccc2NC(=O)Nc2ccc(OC(F)(F)F)cc2)cccc1N1CCC1` (racemic) [S94] displayed an IC50 of 0.889 µM.

`O=C(Nc1cccc(OC(F)(F)F)c1)Nc1cccnc1Oc1ccc(F)cc1C1(C(F)(F)F)CCO1` (racemic) [S49, 1-(2-(4-fluoro-2-(2-(trifluoromethyl)oxetan-2-yl)phenoxy)pyridin-3-yl)-3-(3-(trifluoromethoxy)phenyl)urea] showed an IC50 of 0.419 µM.

`O=C(Nc1ccc(OC2CC(F)(F)C2)cc1)Nc1cccnc1Oc1ccccc1C1(C(F)(F)F)CCO1` (racemic) [S36, 1-(4-(3,3-difluorocyclobutoxy)phenyl)-3-(2-(2-(2-(trifluoromethyl)oxetan-2-yl)phenoxy)pyridin-3-yl)urea] came in with a half-inhibitory concentration (IC50) of 0.207 µM.

The assay is the same for the next values; noted with them: single enantiomer; 5nM MRS2365; values rounded to nearest whole number.
As for `CC(C)(c1ccc(NC(=O)Nc2cccnc2Oc2ccccc2[C@@]2(C(F)(F)F)CCO2)cc1)C(F)(F)F` [S101], the IC50 came out at 0.048 µM.

On to `O=C(Nc1cccnc1Oc1ccccc1[C@@]1(C(F)(F)F)CCO1)Nc1ccc(Cl)c(F)c1F` [S108], for which the IC50 turned out to be 0.125 µM.

Molecule `CN1CC[C@]1(c1ccccc1Oc1ncccc1NC(=O)Nc1ccc(OC(F)(F)F)cc1)C(F)(F)F` (racemic) [S105] returned an IC50 of 0.077 µM.

As for `Cc1ccc(NC(=O)Nc2ccc(C(C)C)cc2F)c(Oc2ccccc2[C@@]2(C(F)(F)F)CCO2)n1` (single isomer, unassigned) [S122], the IC50 amounted to 0.018 µM.

`O=C(Nc1ccc(OC(F)(F)F)cc1)Nc1cccnc1Oc1ccccc1[C@]1(C(F)(F)F)CCO1` [S111] had an IC50 of 0.119 µM.

As to `CN1CC[C@@]1(c1ccccc1Oc1ncccc1NC(=O)Nc1ccc(OC(F)(F)F)cc1F)C(F)(F)F` (single isomer, unassigned) [S98], the IC50 was determined as 0.026 µM.
